Source: PubChem BioAssay AID1745844 (Carcinogenic Potency Database (CPDB), 2022)
Active and inactive are the calls of the source. The rule behind the calls is not given here.

System: rodent lifetime carcinogenesis bioassay, tumor incidence TD50
Experiment: chronic cancer bioassays in animals – CPDB, compiled studies (AID 1745844)

Question: With `CCCCCCCC/C=C\CCCCCCCC(=O)O` as the compound, how does the carcinogen call (rat, strain F344/DuCrj, females, in drinking water, site: any site (literature study), lesion: several types, types named in the paper, dosed 108 weeks, study length 108 weeks) read?
Answer: negative (inactive)

Question: What about the carcinogen call (rat, strain F344/DuCrj, females, in drinking water, site: liver, lesion: hyperplastic nodule, dosed 108 weeks, study length 108 weeks) of the same compound?
Answer: negative (inactive)

Question: What about the carcinogen call (rat, strain F344/DuCrj, males, in drinking water, site: any site (literature study), lesion: several types, types named in the paper, dosed 108 weeks, study length 108 weeks) of the same compound?
Answer: negative (inactive)

Question: And the TD50 (rat, strain F344/DuCrj, males, in drinking water, site: liver, lesion: hyperplastic nodule, dosed 108 weeks, study length 108 weeks)?
Answer: 29100 mg/kg/day (inactive)

Question: What about the TD50 (rat, strain F344/DuCrj, males, in drinking water, site: liver, lesion: several types, types named in the paper, dosed 108 weeks, study length 108 weeks) of the same compound?
Answer: 39300 mg/kg/day (inactive)

Question: And the TD50 (rat, strain F344/DuCrj, males, in drinking water, site: pancreas, lesion: insuloma, dosed 108 weeks, study length 108 weeks)?
Answer: 12600 mg/kg/day (inactive)

Question: And the TD50 (rat, strain F344/DuCrj, males, in drinking water, site: pancreas, lesion: several types, types named in the paper, dosed 108 weeks, study length 108 weeks)?
Answer: 10100 mg/kg/day (inactive)

Question: For `CC(=O)[O-].CC(=O)[O-].[Cd+2]`, which carcinogen call (mouse, strain Charles River CD1, females, in drinking water, site: any site (literature study), lesion: one or several types, types not named, dosed 130 weeks, study length 130 weeks) is on record?
Answer: negative (inactive)

Question: What about the carcinogen call (mouse, strain Charles River CD1, females, in drinking water, site: lung, lesion: carcinoma, dosed 130 weeks, study length 130 weeks) of the same compound?
Answer: negative (inactive)

Question: What about the carcinogen call (mouse, strain Charles River CD1, males, in drinking water, site: any site (literature study), lesion: one or several types, types not named, dosed 120 weeks, study length 120 weeks) of the same compound?
Answer: negative (inactive)

Question: What about the carcinogen call (mouse, strain Charles River CD1, males, in drinking water, site: lung, lesion: carcinoma, dosed 120 weeks, study length 120 weeks) of the same compound?
Answer: negative (inactive)

Question: And the TD50 (rat, strain Long-Evans BLU:(LE), both sexes, in drinking water, site: any site (literature study), lesion: malignant tumor, dosed 175 weeks, study length 175 weeks)?
Answer: 5.1 mg/kg/day (inactive)

Question: What about the TD50 (rat, strain Long-Evans BLU:(LE), both sexes, in drinking water, site: any site (literature study), lesion: one or several types, types not named, dosed 175 weeks, study length 175 weeks) of the same compound?
Answer: 1.81 mg/kg/day (inactive)

Question: What about the TD50 (rat, strain Long-Evans BLU:(LE), both sexes, in drinking water, site: liver, lesion: one or several types, types not named, dosed 175 weeks, study length 175 weeks) of the same compound?
Answer: 37.7 mg/kg/day (inactive)

Question: How did the TD50 (mouse, strain B6C3F1, females, by gavage, site: all sites, lesion: histiocytic sarcoma, dosed 103 weeks, study length 104 weeks) turn out when `Cn1c(=O)c2[nH]cnc2n(C)c1=O` was run?
Answer: 20.5 mg/kg/day (inactive)

Question: And the carcinogen call (mouse, strain B6C3F1, males, by gavage, site: any site (literature study), lesion: several types, types named in the paper, dosed 103 weeks, study length 104 weeks)?
Answer: negative (inactive)

Question: And the carcinogen call (rat, strain Fischer 344, females, by gavage, site: any site (literature study), lesion: several types, types named in the paper, dosed 104 weeks, study length 104 weeks)?
Answer: negative (inactive)

Question: What about the carcinogen call (rat, strain Fischer 344, males, by gavage, site: any site (literature study), lesion: several types, types named in the paper, dosed 104 weeks, study length 104 weeks) of the same compound?
Answer: negative (inactive)

Question: Which results are given for `COC(=O)C(C)(C)Oc1ccc(-c2ccc(Cl)cc2)cc1`?
Answer: TD50 (mouse, strain AP Alderly Park, females, in feed, site: liver, lesion: hepatocellular adenoma, dosed 78 weeks, study length 78 weeks): 2.27 mg/kg/day; TD50 (mouse, strain AP Alderly Park, females, in feed, site: liver, lesion: hepatocellular carcinoma, dosed 78 weeks, study length 78 weeks): 8.3 mg/kg/day; TD50 (mouse, strain AP Alderly Park, females, in feed, site: liver, lesion: several types, types named in the paper, dosed 52 weeks, study length 78 weeks): 25 mg/kg/day; TD50 (mouse, strain AP Alderly Park, females, several routes, site: liver, lesion: hepatocellular adenoma, dosed 78 weeks, study length 78 weeks): 48.5 mg/kg/day; TD50 (mouse, strain AP Alderly Park, females, several routes, site: liver, lesion: hepatocellular carcinoma, dosed 78 weeks, study length 78 weeks): 13.4 mg/kg/day; TD50 (mouse, strain AP Alderly Park, females, several routes, site: lung, lesion: adenoma, dosed 78 weeks, study length 78 weeks): 890 mg/kg/day; TD50 (mouse, strain AP Alderly Park, males, in feed, site: liver, lesion: hepatocellular adenoma, dosed 78 weeks, study length 78 weeks): 2.75 mg/kg/day; TD50 (mouse, strain AP Alderly Park, males, in feed, site: liver, lesion: hepatocellular carcinoma, dosed 78 weeks, study length 78 weeks): 0.858 mg/kg/day; TD50 (mouse, strain AP Alderly Park, males, in feed, site: liver, lesion: several types, types named in the paper, dosed 26 weeks, study length 78 weeks): 2.08 mg/kg/day; TD50 (mouse, strain AP Alderly Park, males, in feed, site: liver, lesion: several types, types named in the paper, dosed 52 weeks, study length 78 weeks): 5.94 mg/kg/day; TD50 (mouse, strain AP Alderly Park, males, several routes, site: liver, lesion: hepatocellular carcinoma, dosed 78 weeks, study length 78 weeks): 16.8 mg/kg/day; TD50 (rat, strain Alpk:APfSD, females, in feed, site: liver, lesion: hepatocellular adenoma, dosed 104 weeks, study length 104 weeks): 460 mg/kg/day; TD50 (rat, strain Alpk:APfSD, females, in feed, site: liver, lesion: hepatocellular carcinoma, dosed 104 weeks, study length 104 weeks): 5.88 mg/kg/day; TD50 (rat, strain Alpk:APfSD, males, in feed, site: liver, lesion: hepatocellular adenoma, dosed 104 weeks, study length 104 weeks): 17.4 mg/kg/day; TD50 (rat, strain Alpk:APfSD, males, in feed, site: liver, lesion: hepatocellular carcinoma, dosed 104 weeks, study length 104 weeks): 2.87 mg/kg/day; TD50 (rat, strain Alpk:APfSD, males, in feed, site: pancreas, exocrine, lesion: adenoma, dosed 52 weeks, study length 104 weeks): 1.44 mg/kg/day; TD50 (rat, strain Alpk:APfSD, males, in feed, site: pancreas, exocrine, lesion: adenoma, dosed 104 weeks, study length 104 weeks): 18.5 mg/kg/day; TD50 (rat, strain Alpk:APfSD, males, in feed, site: testis, lesion: Leydig-cell adenoma, dosed 104 weeks, study length 104 weeks): 2.93 mg/kg/day; carcinogen call (rat, strain Fischer 344, males, in feed, site: liver, lesion: hepatocellular carcinoma, dosed 75 weeks, study length 75 weeks): positive

Question: For `CC(N)=S`, which TD50 (mouse, strain ICR, males, in feed, site: liver, lesion: hepatocellular carcinoma, dosed 40 weeks, study length 88 weeks) is on record?
Answer: 15.3 mg/kg/day

Question: What about the TD50 (mouse, strain ICR, males, in feed, site: liver, lesion: hyperplastic nodule, dosed 40 weeks, study length 88 weeks) of the same compound?
Answer: 12 mg/kg/day

Question: And the TD50 (mouse, strain Swiss, females, in feed, site: liver, lesion: hepatoma, dosed 65 weeks, study length 65 weeks)?
Answer: 5.36 mg/kg/day

Question: What about the carcinogen call (mouse, strain Swiss, males, in feed, site: liver, lesion: hepatoma, dosed 65 weeks, study length 65 weeks) of the same compound?
Answer: positive

Question: And the TD50 (rat, strain Donryu, males, in feed, site: liver, lesion: hepatocellular carcinoma, trabecular, dosed 40 weeks, study length 80 weeks)?
Answer: 21.8 mg/kg/day

Question: And the TD50 (rat, strain Donryu, males, in feed, site: liver, lesion: papillary adenocarcinoma, dosed 40 weeks, study length 80 weeks)?
Answer: 27.6 mg/kg/day

Question: What about the TD50 (rat, strain Donryu, males, in feed, site: liver, lesion: several types, types named in the paper, dosed 40 weeks, study length 80 weeks) of the same compound?
Answer: 11.5 mg/kg/day

Question: `C=CC(O)c1ccc(OC)cc1` (configuration not stated) was tested. Which TD50 (mouse, strain Charles River CD1, females, in feed, site: liver, lesion: hepatoma, dosed 51 weeks, study length 86 weeks) did it give?
Answer: 57.8 mg/kg/day

Question: Which results are given for `NC(=O)C(=Cc1ccc([N+](=O)[O-])o1)c1ccco1`?
Answer: TD50 (hamster, strain Syrian Golden, females, in feed, site: esophagus, lesion: papilloma, dosed 94 weeks, study length 94 weeks): 2340 mg/kg/day; TD50 (hamster, strain Syrian Golden, females, in feed, site: forestomach, lesion: several types, types named in the paper, dosed 94 weeks, study length 94 weeks): 59.1 mg/kg/day; TD50 (hamster, strain Syrian Golden, females, in feed, site: forestomach, lesion: squamous-cell carcinoma, dosed 94 weeks, study length 94 weeks): 2340 mg/kg/day; TD50 (hamster, strain Syrian Golden, males, in feed, site: esophagus, lesion: several types, types named in the paper, dosed 94 weeks, study length 94 weeks): 328 mg/kg/day; TD50 (hamster, strain Syrian Golden, males, in feed, site: esophagus, lesion: squamous-cell carcinoma, dosed 94 weeks, study length 94 weeks): 2180 mg/kg/day; TD50 (hamster, strain Syrian Golden, males, in feed, site: forestomach, lesion: several types, types named in the paper, dosed 94 weeks, study length 94 weeks): 30.5 mg/kg/day; TD50 (hamster, strain Syrian Golden, males, in feed, site: forestomach, lesion: squamous-cell carcinoma, dosed 94 weeks, study length 94 weeks): 164 mg/kg/day; TD50 (mouse, strain CDF1, females, in feed, site: forestomach, lesion: papilloma, dosed 78 weeks, study length 104 weeks): 714 mg/kg/day; TD50 (mouse, strain CDF1, females, in feed, site: forestomach, lesion: squamous-cell carcinoma, dosed 78 weeks, study length 104 weeks): 2540 mg/kg/day; TD50 (mouse, strain CDF1, females, in feed, site: lung, lesion: one or several types, types not named, dosed 78 weeks, study length 104 weeks): 16400 mg/kg/day; TD50 (mouse, strain CDF1, males, in feed, site: forestomach, lesion: papilloma, dosed 78 weeks, study length 104 weeks): 753 mg/kg/day; TD50 (mouse, strain CDF1, males, in feed, site: forestomach, lesion: squamous-cell carcinoma, dosed 78 weeks, study length 104 weeks): 928 mg/kg/day; TD50 (mouse, strain CDF1, males, in feed, site: lung, lesion: one or several types, types not named, dosed 78 weeks, study length 104 weeks): 9270 mg/kg/day; TD50 (mouse, strain DDY, males, in feed, site: any site (literature study), lesion: several types, types named in the paper, dosed 44 weeks, study length 80 weeks): 60.8 mg/kg/day; TD50 (mouse, strain DDY, males, in feed, site: forestomach, lesion: several types, types named in the paper, dosed 44 weeks, study length 80 weeks): 60.8 mg/kg/day; TD50 (mouse, strain DDY, males, in feed, site: forestomach, lesion: squamous-cell carcinoma, dosed 44 weeks, study length 80 weeks): 72.9 mg/kg/day; TD50 (mouse, strain DDY, males, in feed, site: lung, lesion: adenoma, dosed 44 weeks, study length 80 weeks): 299 mg/kg/day; TD50 (mouse, strain ICR/Jcl, females, in feed, site: all sites, lesion: leukemia, dosed 62 weeks, study length 62 weeks): 1800 mg/kg/day; TD50 (mouse, strain ICR/Jcl, females, in feed, site: forestomach, lesion: several types, types named in the paper, dosed 62 weeks, study length 62 weeks): 95 mg/kg/day; TD50 (mouse, strain ICR/Jcl, females, in feed, site: forestomach, lesion: squamous-cell carcinoma, dosed 62 weeks, study length 62 weeks): 225 mg/kg/day; TD50 (mouse, strain ICR/Jcl, females, in feed, site: liver, lesion: hepatocellular tumor, dosed 104 weeks, study length 104 weeks): 7070 mg/kg/day (inactive); TD50 (mouse, strain ICR/Jcl, males, in feed, site: forestomach, lesion: several types, types named in the paper, dosed 62 weeks, study length 62 weeks): 90.3 mg/kg/day; TD50 (mouse, strain ICR/Jcl, males, in feed, site: forestomach, lesion: squamous-cell carcinoma, dosed 62 weeks, study length 62 weeks): 208 mg/kg/day; carcinogen call (mouse, strain ICR/Jcl, males, in feed, site: liver, lesion: hepatocellular tumor, dosed 104 weeks, study length 104 weeks): negative (inactive); TD50 (rat, strain Sprague-Dawley, females, in feed, site: mammary gland, lesion: adenocarcinoma, dosed 46 weeks, study length 66 weeks): 26.4 mg/kg/day; TD50 (rat, strain Sprague-Dawley, females, in feed, site: mammary gland, lesion: several types, types named in the paper, dosed 46 weeks, study length 66 weeks): 11.4 mg/kg/day; TD50 (rat, strain Wistar, females, in feed, site: forestomach, lesion: papilloma, dosed 78 weeks, study length 104 weeks): 424 mg/kg/day; TD50 (rat, strain Wistar, females, in feed, site: liver, lesion: hemangioendothelial sarcoma, dosed 78 weeks, study length 104 weeks): 2000 mg/kg/day; TD50 (rat, strain Wistar, females, in feed, site: mammary gland, lesion: several types, types named in the paper, dosed 78 weeks, study length 104 weeks): 74.7 mg/kg/day; TD50 (rat, strain Wistar, males, in feed, site: forestomach, lesion: papilloma, dosed 78 weeks, study length 104 weeks): 409 mg/kg/day; TD50 (rat, strain Wistar, males, in feed, site: liver, lesion: hemangioendothelial sarcoma, dosed 78 weeks, study length 104 weeks): 1600 mg/kg/day; TD50 (rat, strain Wistar, males, in feed, site: mammary gland, lesion: several types, types named in the paper, dosed 78 weeks, study length 104 weeks): 1200 mg/kg/day
